In general, logD refers to lipophilicity at a set pH, counting ionised and neutral species. What is called Solubility is the concentration that dissolves in the medium under given conditions. A higher Solubility goes with a readily soluble substance. As a reminder, the EC50 is the concentration needed to bring the measured effect to its halfway point.

Data set [1] has as its system P. falciparum strain 3D7A. The class given is cell-based, Plasmodium falciparum.
A short description of data set [2]: Intrinsic clearance in rat liver microsomes. The class given is in vitro ADME. To be noted: 0.5 µM.
The next data set addresses T1, SRPK2 (Plasmodium falciparum, UniProt Q8IL41).
T1 sequence (Q8IL41 1-1268): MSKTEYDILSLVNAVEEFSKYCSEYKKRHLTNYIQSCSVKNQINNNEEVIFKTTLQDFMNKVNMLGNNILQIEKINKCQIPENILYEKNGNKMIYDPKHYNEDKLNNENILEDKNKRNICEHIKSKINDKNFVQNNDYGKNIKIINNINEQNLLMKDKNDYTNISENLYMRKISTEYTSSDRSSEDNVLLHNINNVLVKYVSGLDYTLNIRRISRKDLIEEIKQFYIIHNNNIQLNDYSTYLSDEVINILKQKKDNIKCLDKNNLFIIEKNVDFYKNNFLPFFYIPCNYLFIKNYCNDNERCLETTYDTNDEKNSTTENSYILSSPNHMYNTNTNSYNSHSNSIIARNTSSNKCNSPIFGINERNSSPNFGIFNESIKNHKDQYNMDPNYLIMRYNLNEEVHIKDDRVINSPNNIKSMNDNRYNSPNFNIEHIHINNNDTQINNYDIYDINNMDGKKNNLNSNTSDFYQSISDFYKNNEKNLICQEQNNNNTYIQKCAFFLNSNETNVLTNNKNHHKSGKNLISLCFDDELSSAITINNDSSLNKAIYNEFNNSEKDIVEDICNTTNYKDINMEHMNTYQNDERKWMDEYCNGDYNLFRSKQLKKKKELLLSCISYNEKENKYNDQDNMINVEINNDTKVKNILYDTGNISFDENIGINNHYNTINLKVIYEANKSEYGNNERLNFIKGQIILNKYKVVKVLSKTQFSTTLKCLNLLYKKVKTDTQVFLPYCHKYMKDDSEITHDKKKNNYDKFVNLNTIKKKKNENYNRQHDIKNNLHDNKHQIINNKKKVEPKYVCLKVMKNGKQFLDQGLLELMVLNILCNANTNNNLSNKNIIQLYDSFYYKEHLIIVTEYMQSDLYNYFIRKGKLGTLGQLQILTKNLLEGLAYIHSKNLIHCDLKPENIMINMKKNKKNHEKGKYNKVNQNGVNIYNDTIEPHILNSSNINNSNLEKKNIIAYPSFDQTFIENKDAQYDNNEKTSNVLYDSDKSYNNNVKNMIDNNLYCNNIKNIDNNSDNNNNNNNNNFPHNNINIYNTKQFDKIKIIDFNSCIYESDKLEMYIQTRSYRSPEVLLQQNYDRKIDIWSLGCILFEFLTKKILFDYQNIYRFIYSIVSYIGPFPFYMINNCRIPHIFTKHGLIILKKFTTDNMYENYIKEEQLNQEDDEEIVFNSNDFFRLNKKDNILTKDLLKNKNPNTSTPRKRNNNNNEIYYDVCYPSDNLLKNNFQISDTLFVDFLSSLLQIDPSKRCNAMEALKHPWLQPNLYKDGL
The data set can be described thus: Pull down with compound 31 or 50 attached to beads, competition with free compound. It counts as binding. The note with it: competed with free analogue, Figure 4b.

In another data set the target is HSA (Homo sapiens, UniProt P02768). Put plainly: HSA binding (plasma protein binding). The class given is in vitro ADME.
HSA, sequence (P02768 25-609): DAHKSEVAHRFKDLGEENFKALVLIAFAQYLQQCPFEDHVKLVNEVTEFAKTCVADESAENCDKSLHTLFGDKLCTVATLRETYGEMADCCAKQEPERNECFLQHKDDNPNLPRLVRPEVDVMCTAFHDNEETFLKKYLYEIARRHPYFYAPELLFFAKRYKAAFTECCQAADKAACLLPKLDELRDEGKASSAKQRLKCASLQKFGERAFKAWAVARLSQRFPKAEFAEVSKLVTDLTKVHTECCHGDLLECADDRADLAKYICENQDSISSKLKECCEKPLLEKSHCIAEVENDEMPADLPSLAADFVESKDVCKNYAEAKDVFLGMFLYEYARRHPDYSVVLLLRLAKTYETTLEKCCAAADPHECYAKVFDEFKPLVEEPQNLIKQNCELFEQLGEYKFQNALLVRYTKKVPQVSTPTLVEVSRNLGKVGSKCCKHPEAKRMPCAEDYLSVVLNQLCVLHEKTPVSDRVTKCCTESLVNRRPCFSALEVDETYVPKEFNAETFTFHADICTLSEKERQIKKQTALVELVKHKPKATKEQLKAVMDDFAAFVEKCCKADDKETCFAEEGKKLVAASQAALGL
Data set [3] deals with T2, serine/arginine protein kinase 2 (SRPK2 or CLK2) (Plasmodium falciparum, UniProt Q8IL41).
T2 sequence (Q8IL41 1-1268): T1 sequence (Q8IL41 1-1268)
Put plainly: Kinobeads competition binding in P. falciparum extract. The note with it: Figure 4a, read-out: Kd^app SRPK2.

The conditions of data set [4]: ChromlogD.
For data set [5] the following is noted: aqueous solubility.
The nature of another data set: Cell cytotoxicity assay. The class given is cell-based.
Data set [6] concerns Plasmodium falciparum 3D7A. The note with it: read-out: Pf EC50; 3D7A asexual blood stage, 48 h [3H]-hypoxanthine assay, maximal concentration 5 μM.
Data set [7] relates to Plasmodium falciparum WT cell line. The data set can be described thus: Growth inhibition of P. falciparum WT cell line at 48 and 72 h. It counts as cell-based. To be noted: read-out: Pf WT cell line EC50 72h.

“Also recorded” adds a separate entry of the source. Structures can show the parent of a compound that is named as a salt. Where two headings read alike, the source gives them in different places.

For the compound `Cc1cc(Nc2nccc(-c3sc(C4CCNCC4)nc3C3CC3)n2)ccn1` [Compound 59, 4-(4-Cyclopropyl-2-(piperidin-4-yl)thiazol-5-yl)-N-(2-methylpyridin-4-yl)pyrimidin-2-amine Dihydrochloride], the “rate of killing in PRR study” value in data set [1] is recorded as “potent fast-killing properties”. In [2], this compound gave a Cl rat of 1.8 mL/min/g. The same compound registered an AMP (PAMPA) of 1.8.
`Fc1ccc(-c2nc(C3CCNCC3)sc2-c2ccnc(NCCN3CCSCC3)n2)cc1` [Compound 50, 4-(4-(4-Fluorophenyl)-2-(piperidin-4-yl)thiazol-5-yl)-N-(2-thiomorpholinoethyl)pyrimidin-2-amine]: the “apparent Kd SRPK2 on immobilized compounds” value at SRPK2 is “not bind to 50 attached to beads”. The compound further yielded an HSA binding at HSA of 90%. The Kd in [3] is over 20 µM.
“4-(4-(4-Fluorophenyl)-2-(piperidin-4-yl)thiazol-5-yl)-N-(1-(piperidin-4-yl)-1H-pyrazol-3-yl)pyrimidin-2-amine [Compound 24]” returned a logD in [4] of 1.29. The Solubility in [5] was 131 µM. On HSA, this compound showed an HSA binding of 93%. For the same compound, the EC50 in “Cell cytotoxicity assay” worked out at 100 µM; in data set [6] it was 3.31 µM. Also, the AMP (Tables 2 and 5) is 3e-07 cm/s.
In the case of `CN1CCC(c2nc(-c3ccc(F)c(NS(C)(=O)=O)c3)c(-c3ccnc(NCC4CC4)n3)s2)CC1` [Compound 5, reference compound], the HSA binding on HSA is 91%. In data set [1] (PRR, 10 × EC50, result in words), the “rate of killing in PRR study” value is reported as “slow-acting compound; also recorded: slow parasite killing kinetics”. Also, the EC50 in data set [7] came to 0.11 µM. Moreover, the AMP runs as follows: (Tables 1 and 4) 3.4e-05 cm/s; (Tables 2 and 5) 3.4e-06 cm/s.

The values are drawn from publication PMC6816013 (Journal of Medicinal Chemistry, 2019).
